Measurements published in patent US12377076B2, “Compounds for treating lymphoma or a T-cell malignant disease” (Purdue Pharma L.P., priority 2018, dated 2025).
Where “and” joins values, the source holds several entries; their conditions need not be identical. Equal entries are not always repeated.

Experiments:
Type in all cases: in vivo, human
patients with lymphoma = assay: Tumour assessment: response to treatment, patients with lymphoma
Source text: (§1) Response to treatment included evaluation of overall response rate (patients with a CR plus patients with a PR), clinical benefit (CB) rate (patients with CR plus patients with PR plus patients with stable disease (SD)), progression free survival, and overall survival according to the relevant response criteria.

patients with MM = assay: Tumour assessment: response to treatment, patients with multiple myeloma; conditions: 19 patients with MM
Source text: as §1

neutrophils = assay: PK/PD safety modelling: dose-nadir relationship of blood cell counts, neutrophils; conditions: (% CV) in table
Source text: The obtained exposure parameters (Cmax and AUC) and PK profiles from individual patients and the respective haematological laboratory data were collected over the treatment duration and analysed regarding the relationship to peripheral blood cell counts (lymphocytes, neutrophils, platelets).
The nadir was defined as the lowest blood cell count observed after the first administration. The nadir was extracted irrespective of the treatment duration, thus, the analysis data set included patients who received only one dose and patients who received multiple treatment cycles with tinostamustine. The baseline blood cell count, which was the count before the first administration, was included in the analysis as the cell count at dose, Cmax or AUC equal to 0. Thus, it was assumed that the baseline blood cell count was the effect level without treatment with tinostamustine. With an exploratory analysis all observations each predictor-nadir relationship was fitted with a least-squares method in R. The dose-nadir relationship was further investigated with a non-linear mixed effects approach. The advantage of the non-linear mixed effects approach compared to the exploratory analysis was that different external and patient factors could be investigated at the same time and the between patient variability can be described. […]

[1] = test system: patients with relapsed/refractory hematologic malignancies; assay: Tumour assessment: response to treatment, all HM; conditions: all 46 patients
Source text: as §1

Cn1c(CCCCCCC(=O)NO)nc2cc(N(CCCl)CCCl)ccc21 [tinostamustine]
CBR (patients with lymphoma; 27 patients with lymphoma): 62% | ORR (patients with lymphoma; 27 patients with lymphoma): 40% | best response CR (patients with lymphoma; 27 patients with lymphoma): 11% | best response PR (patients with lymphoma; 27 patients with lymphoma): 30% | best response SD (patients with lymphoma; 27 patients with lymphoma): 22% | best response of PD (patients with lymphoma; 27 patients with lymphoma): 37% | ORR and CBR (patients with lymphoma; LYM60 mg/m^2/30 min cohort): 100% | CBR (patients with MM): 42% | ORR (patients with MM): 11% | best response CR (patients with MM): 0 patients | best response PR (patients with MM): 11% | best response SD (patients with MM): 31% | best response of PD (patients with MM): 47% | EC50 (dose required to reduce the cell count by 50%) (neutrophils): 49.1 mg/m^2 and 49.1 (70%) mg/m^2 | best response complete response (CR) [1]: 7% | best response of PD [1]: 41% | best response partial response (PR) [1]: 21% | clinical benefit rate (CBR) [1]: 45% | overall response rate (ORR) [1]: 28%
